The text below walks through data of patent publication US10968214B2, “KRas G12C inhibitors” (Eli Lilly and Company, priority 2018, dated 2021).

Read-outs that look alike come from different tables or passages of the source.

What all share (assay type): cell-based
The test system of assay [1] is Calu-1. The assay is described as follows: CellTiterGlo Cell Proliferation Assay, Calu-1. The following applies: Homo sapiens, KRas G12C, Lung, 96 hr. As to the method:
(§1) A panel of tumor cell lines harboring KRas G12C or other KRas mutations are collected (Table 6). All cell lines are from ATCC or other sources indicated.
(§2) Typically cells are cultured in RPMI1640 or Dulbecco's modified Eagle's medium (DMEM, GIBCO) supplemented with 10% FBS (GIBCO, Invitrogen). For 2D culture cells (4×10^3/well) maintained in growth medium described above, are plated onto 96 well tissue culture plates Corning® Cat. 3603) a day before the treatment. For 3D culture 8000 cells/well are seeded onto 96 well ultra-low attachment tissue culture plates (Corning, #3474). The cells are treated compound for 96 hr, and then are analyzed for viability using the CellTiterGlo® Luminescent Cell Viability Assay® (Promega #G7572 for 2D and Promega #G9683 for 3D cultures) according to manufacturer's instructions and an EnVision™ plate reader. Nonlinear regression and sigmoidal dose-response curves are used to calculate the half maximal inhibitory concentration (IC50) with GraphPad Prism 4® software.
A general note: Cellular ATP, detected with luciferase, serves as a proxy for viable cell number.

The test system of assay [2] is H1373. The assay is described as follows: CellTiterGlo Cell Proliferation Assay, H1373. The following applies: Homo sapiens, NCI-H1373, KRas G12C, Lung, 96 hr. As for the experimental part:
as §1, §2

Assay [3] deals with H2030. The assay is described as follows: CellTiterGlo Cell Proliferation Assay, H2030. To be noted: Homo sapiens, NCI-H2030, KRas G12C, Lung, 96 hr. As to the method:
as §1, §2

Assay [4] deals with H1975. The assay is described as follows: CellTiterGlo Cell Proliferation Assay, H1975. The following applies: Homo sapiens, NCI-H1975, KRas wild type, lung, 96 hr. As to the method:
as §1, §2

The test system of assay [5] is Calu-1. Put plainly: Combination 4 day growth assay (Cell TiterGlo), Calu-1. To be noted: Homo sapiens, Calu-1, 96 h, single treatment, read-out: Absolute IC50. As to the method:
Cell lines for this study are obtained from ATCC and grown under ATCC recommended conditions, except for LXFA-983L, which is obtained from Oncotest/Charles Rivers Laboratories, Wilmington, Mass. and D122-96, which is obtained from L. Eisenbach (Weizman Institute of Science, Rehovot, Israel)—both grown under recommended conditions. […] The proliferation assay is performed as a 4 day growth assay using Cell TiterGlo® as the readout. Briefly, cells are plated in 96-well cell culture plates and allowed to adhere overnight at 37° C. The following day, cells are treated with compounds, either single treatments or combination treatments. First, the testing compounds are serially diluted in DMSO, followed by dilution into media as a 5× concentration with 1% DMSO, and finally added to cells in media to dilute to 1×. The cells are incubated at 37° C. for 4 more days. At the end of the incubation period, Cell TiterGlo® reagent is mixed and added to the wells. After 10 minutes, the luminescence is read by a Perkin Elmer Envision instrument. Absolute IC50 values generated by a 4-parameter logistics model for the single and combination treatments are generated, followed by combination indexes for each combination treatment and cell line. The combination IC50 values are adjusted based on the total concentration of each compound when added together. […] The combination index (CI) measures the degree to which the potency of a combination therapy differs from the expected-if-additive potency and is based on the Loewe definition of additivity.
[formula] Where • CAy and CBy are the concentrations of therapies A and B that produce an effect, y, when given in combination • ICAy and ICBy are the concentrations of A and B that produce an effect, y, when given individually The biological interpretation of the combination index is as follows: synergistic if the combination index <0.5, additive if the combination index is between 0.5 and 2, and antagonistic if the combination index is >2.

Where [6] appears, read: read-out: IC50 (μM) in 2 D cell proliferation.
Setting [7] is: read-out: IC50 (μM) in 3 D spheroid cell proliferation.

For `C=CC(=O)N1CCN(c2ncnc3c(F)c(-c4ccc(F)c5sc(N)nc45)c(Cl)cc23)CC1` [Example 1, 1-{4-[7-(2-Amino-7-fluoro-1,3-benzothiazol-4-yl)-6-chloro-8-fluoroquinazolin-4-yl]piperazin-1-yl}prop-2-en-1-one], the IC50 worked out at 0.024 µM in assay [1] (setting [6]); 0.001 µM in assay [1] (setting [7]); 0.209 µM in assay [2] (setting [6]); 0.02 µM in assay [2] (setting [7]); 6.88 µM in assay [3] (setting [6]); 0.003 µM in assay [3] (setting [7]). The values for the IC50 in assay [4] (setting [6]), in assay [4] (setting [7]) and in assay [5] were 18.7 µM, 6.2 µM and 14.5 nM, respectively.
